This is an account of results in PMC7083565, “In vitro metabolism, reaction phenotyping, enzyme kinetics, CYP inhibition and induction potential of ataluren” (Pharmacology Research & Perspectives, 2020).

Data set [1] is described as follows: Plasma protein binding (ultrafiltration), dog. It counts as in vitro ADME. Conditions: male, beagle, 50 to 50 000 ng/mL, mean ± SD, n = 3, read-out: percentage protein binding (converted). On the procedure: (§1) [^14C]‐Ataluren, at 50, 500, 5000, and 50 000 ng/mL or 0.175, 1.75, 17.5, and 175 µM, in male mouse, rat, dog, monkey, and human plasma, was incubated (n = 3) at 37°C for approximately 15 minutes, transferred into Centrifree® Micropartition Units (30 000 Da molecular weight cutoff, 1 mL capacity; Amicon Inc), and centrifuged at 37°C and 2000 g for approximately 10 minutes so that the amount of the sample filtered was approximately ≤ 20% of the total volume. After centrifugation, the entire ultrafiltrate was weighed and analyzed for radioactivity using liquid scintillation counting. The percent bound = (1‐Cu/Cm)×100, where Cu is the concentration of radioactivity in the ultrafiltrate and Cm is the concentration of radioactivity in the plasma before centrifugation.

The nature of data set [2]: Plasma protein binding (ultrafiltration), human. It counts as in vitro ADME. The protocol:
as §1

Data set [3] has as its system CYP2B6. Nature of the data set: CYP induction in primary human hepatocytes: CYP2B6. It counts as in vitro ADME. The settings on record: Bupropion-hydroxylase, 48 hours, n=3. On the procedure: (§2) Human hepatocytes isolated from three Caucasian males were transferred to 48‐well collagen‐coated plates at 0.14 × 10^6 cells/well in planting media for attachment. After attachment, planting media was replaced with sandwich media and the cells were incubated until clusters were established. […] The incubation solutions were aspirated and replaced with freshly prepared incubation solutions containing ataluren for an additional 24 hours. […] The incubation solutions were then aspirated and 150 µL of K‐H buffer containing CYP substrates were added. The hepatocytes were incubated for 30 minutes for CYP2C8 (10 µmol/L amodiaquine), 1 hour for CYP3A4 (125 µmol/L testosterone), and 4 hours for CYPs 1A2 (100 µmol/L phenacetin), 2A6 (100 µmol/L coumarin), 2B6 (150 µmol/L bupropion), 2C9 (50 µmol/L tolbutamide), 2C19 (100 µmol/L S‐mephenytoin), and 2E1 (300 µmol/L chlorzoxazone) activity assays. The reactions were stopped by the addition of 0.15 mL of ice‐cold methanol except that coumarin‐treated cells were incubated with β‐glucuronidase and aryl sulfatase for additional 1 hour to free 7‐hydroxycoumarin before the addition of 0.2 mL of ice‐cold methanol. Metabolite formation in incubations with test compounds and control inhibitors was assessed with validated LC‐MS/MS methods for each of the reaction products as described in Table S2. Enzymatic activity for each CYP was calculated using the absolute amount of metabolite formed (pmol) divided by hepatocytes in the incubation (million cells) and the incubation time (minute). The relative fold induction in enzymatic activity was calculated by comparing the rate of metabolite formation for treatment groups to that of the solvent control group (reported as vehicle control%) or positive control group (reported as positive control%).

The test system of data set [4] is CYP2E1. Nature of the data set: CYP induction in primary human hepatocytes: CYP2E1. Conditions: male, 48 h, 4 µM. It counts as in vitro ADME. The protocol:
as §2, with “The hepatocytes were incubated for 30 minutes for CYP2C8 (10 µmol/L amodiaquine), 1 hour for CYP3A4 (125 µmol/L testosterone), and 4 hours for CYPs 1A2 (100 µmol/L phenacetin), 2A6 (100 µmol/L coumarin), 2B6 (150 µmol/L bupropion), 2C9 (50 µmol/L tolbutamide), 2C19 (100 µmol/L S‐mephenytoin), and 2E1 (300 µmol/L chlorzoxazone) activity assays. The reactions were stopped by the addition of 0.15 mL of ice‐cold methanol except that coumarin‐treated cells were incubated with β‐glucuronidase and aryl sulfatase for additional 1 hour to free 7‐hydroxycoumarin before the addition of 0.2 mL of ice‐cold methanol.” left out

Data set [5] has as its system human hepatocytes. The data set can be described thus: MTT cytotoxicity assay in human hepatocytes. It counts as cell-based. Conditions: at the concentrations tested (4, 40, 400 µmol/L), data not shown. (Formazan colour is commonly taken as a measure of viable cells.)

On to `O=C(O)c1cccc(-c2noc(-c3ccccc3F)n2)c1` [ataluren, Ataluren], for which the fraction unbound at 15 min in data set [1] was 0.025; in data set [2] (male, 50 to 50 000 ng/mL, mean ± SD, n = 3, read-out: percentage protein binding (converted)), 0.004. Moreover, the “free fraction in human plasma” value in data set [2] (as measured) turned out to be 0.4%. Further, the figures for the “Positive control %, Mean” value in data set [3] (ataluren 4 µM), in data set [3] (ataluren 40 µM) and in data set [3] (ataluren 400 µM) were 2.81%, 6.27% and 19.8%, respectively. Further, the “Vehicle control %, Mean” value turned out to be 111% in data set [3] (ataluren 4 µM), 123% in data set [3] (ataluren 40 µM), 170% in data set [3] (ataluren 400 µM) and 99.0% in data set [4]. In addition, in data set [5], the “cytotoxicity (MTT assay)” value is on record as “not cytotoxic”.
